# Results reported in PMC11112591 (ACS Omega, 2024).
# Experiments:
# [1] = Mouse liver microsome intrinsic clearance; assay type: in vitro ADME; conditions: liver microsomes, pH 7.4
# [2] = Parallel artificial membrane permeability assay; assay type: in vitro ADME; conditions: PAMPA, PAMPA effective permeability, donor pH 6.5, acceptor pH 7.5, 5 h, 37 °C
# CYP51 = CYP51 (Trypanosoma cruzi, UniProt Q7Z1V1); assay: CYP51 inhibition of initial hits; assay type: biochemical; conditions: initial hit data, Figure 1
# Chain of CYP51 (Q7Z1V1 whole entry): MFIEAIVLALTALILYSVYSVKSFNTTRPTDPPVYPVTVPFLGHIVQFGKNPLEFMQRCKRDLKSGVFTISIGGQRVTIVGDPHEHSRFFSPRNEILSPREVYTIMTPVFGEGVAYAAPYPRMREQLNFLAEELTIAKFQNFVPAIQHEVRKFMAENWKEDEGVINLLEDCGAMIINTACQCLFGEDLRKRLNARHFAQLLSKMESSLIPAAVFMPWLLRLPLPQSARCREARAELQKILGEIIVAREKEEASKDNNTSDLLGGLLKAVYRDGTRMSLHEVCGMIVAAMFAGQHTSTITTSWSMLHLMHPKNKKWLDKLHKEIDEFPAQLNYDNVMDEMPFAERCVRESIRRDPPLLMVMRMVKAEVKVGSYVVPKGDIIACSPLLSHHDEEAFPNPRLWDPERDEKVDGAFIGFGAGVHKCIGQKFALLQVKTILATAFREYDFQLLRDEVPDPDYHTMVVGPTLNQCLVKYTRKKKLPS
microsomal CLint at 0.5 µM [1] [µL/min/mg],"Papp at 5 h, 1 µM [2] [×10⁻⁶ cm/s]",CYP51 IC50 (CYP51),SMILES
3240,31.1,,"Cc1cc(C)c(C#N)c(OCC(=O)c2ccccc2)n1 [Compound 23, O(c1nc(C)cc(C)c1C#N)CC(=O)c2ccccc2]"
1320,23.3,,"Cc1cc(C)c(C#N)c(SCC(=O)c2ccsc2)n1 [Compound 3, S(c1nc(C)cc(C)c1C#N)CC(=O)c2cscc2]"
1560,20.4,,"Cc1cc(C)c(C#N)c(SCC(=O)c2ccccc2)n1 [Compound 2, c1c(C)c(C#N)c(SCC(=O)c2ccccc2)nc1C]"
3480,25.4,no clear CYP51 inhibition,"Cc1cc(C)c(C#N)c(SCC(=O)c2cccs2)n1 [Compound 1, c1(SCC(=O)c2cccs2)nc(C)cc(C)c1C#N]"
8860,1,,"CCc1ccc(C(=O)CSc2nc(C)cc(C)c2C#N)cc1 [Compound 5, S(c1nc(C)cc(C)c1C#N)CC(=O)c2ccc(CC)cc2]"
8880,4.3,,"Cc1cc(C)c(C#N)c(SCC(=O)c2ccc(Cl)cc2)n1 [Compound 8, Cc1c(C#N)c(SCC(=O)c2ccc(Cl)cc2)nc(C)c1]"
73.9,11.7,,"Cc1cc(C)c(C#N)c(SCC(=O)N2CCOCC2)n1 [Compound 16, Cc1c(C#N)c(SCC(=O)N2CCOCC2)nc(C)c1]"
4040,7.5,,"Cc1cc(C)c(C#N)c(SCC(=O)c2ccc(F)cc2F)n1 [Compound 7, O=C(CSc1nc(C)cc(C)c1C#N)c2ccc(F)cc2F]"
,8,,"Cc1cc(C)c(C#N)c(SCC(=O)c2ccc(F)cc2)n1 [Compound 6, S(c1nc(C)cc(C)c1C#N)CC(=O)c2ccc(F)cc2]"
4300,24.6,,"COc1ccc(C(=O)CSc2nc(C)cc(C)c2C#N)cc1 [Compound 11, S(c1nc(C)cc(C)c1C#N)CC(=O)c2ccc(OC)cc2]"
35300,1.7,,"Cc1cc(C)c(C#N)c(SCC(=O)c2ccc(Cl)cc2Cl)n1 [Compound 9, Clc1cc(ccc1C(CSc2c(C#N)c(C)cc(C)n2)=O)Cl]"
9670,9.3,,"COc1ccccc1C(=O)CSc1nc(C)cc(C)c1C#N [Compound 10, S(c1nc(C)cc(C)c1C#N)CC(=O)c2ccccc2OC]"
892,17.5,,"Cc1cc(C)c(C(N)=O)c(SCC(=O)c2ccc(F)cc2)n1 [Compound 38, O=C(CSc1nc(C)cc(C)c1C(=O)N)c2ccc(F)cc2]"
